# From US20240409935A1, “Atg8ylation coordinates stress granule formation and mTOR inactivation in response to lysosomal damage” (priority 2023, published 2024)
# Assays:
# ATF4 = assay: Immunoblot analysis of ATF4 in U2OS cells; type: cell-based, human; details: 2 mM LLOMe, indicated time points
# [1] = system: polyA RNA in G3BP1 puncta; assay: Confocal microscopy of G3BP1 and polyA RNA (Cy3-oligo[dT]) by FISH in U2OS cells; type: cell-based, human; details: 2 mM LLOMe for 30 min
# [2] = system: U2OS wildtype (WT) and ΔΔG3BP1/2 cells; assay: Propidium iodide (PI) uptake cell death assay (HCM) in U2OS WT and ΔΔG3BP1/2 cells; type: cell-based, human; details: ΔΔG3BP1/2 cells compared to wildtype U2OS cells, 2 mM LLOMe for 30 min
# Description: Cells Were treated with 2 mM LLOMe for 30 min, and then stained with propidium iodide (PI) (dead cells) and Hoechst-33342 (total cells). White masks, algorithm-defined cell boundaries (primary objects); red masks, computer-identified PI^+ nuclei (target objects). […] Cells Were treated with 2 mM LLOMe for 30 min. […] Cells Were treated with 2 mM in the presence or absence of 10 μg/ml cycloheximide (CHX) for 30 min, and then stained with PI (dead cells) and Hoechst-33342 (total cells). […] Scale bar, 10 μm. […] Cells Were treated with 2 mM LLOMe with or without CHX for 30 min, and then stained using Live/Dead™ stain kit (ThermoFisher). […] (i) HCM images: white masks, algorithm-defined cell boundaries; green masks, computer-identified eIF4G puncta; red masks, computer-identified PI^+ nuclei (target objects); (ii and iii) corresponding HCM quantification. […]
# How does SG formation affect cell fate during lysosomal damage? […] The inventors quantified the number of SGs using the canonical SG marker polyA RNA (Ivanov et al., 2019) via high-content microscopy (HCM) (FIG. S1B) and verified the depletion of SG formation in ΔΔG3BP1/2 cells when exposed to the lysosome-specific damaging agent L-leucyl-L-leucine methyl ester (LLOMe) (Jia et al., 2022; Tan et al., 2022; Thiele et al., 1990) (FIG. 7SB). […]
# [3] = system: G3BP1+ SGs and lysosomes (LAMP2); assay: HCM quantification of G3BP1+ SGs associated with lysosomes (LAMP2); type: cell-based; details: 30 min after exposure to LLOMe
# Description: Do SGs induced by lysosomal damage associate with lysosomes? The inventors addressed this by imaging analysis. By confocal fluorescence microscopy, the majority of G3BP1-positive SGs formed during lysosomal damage were either independent of lysosomes or juxtaposed to lysosomes (FIG. 3SA). By HCM quantification, only 10% of G3BP1^+ SGs appeared associated with lysosomes (LAMP2) 30 min after exposure to lysosomal damaging agent LLOMe. The inventors then asked the question whether SGs formed in response to lysosomal damage initiate as a nidus on the lysosomal surface. Using live microscopy, the inventors observed that the majority of SGs Were forming in locations independent of lysosomes (FIG. 3SB).
# [4] = system: eIF2α (S51) phosphorylation; assay: Immunoblot analysis of eIF2α (S51) phosphorylation in U2OS cells; type: cell-based, human; details: U2OS cells
compound,measurement,setting,value
"COC(=O)[C@H](CC(C)C)NC(=O)[C@@H](N)CC(C)C [LLOMe, L-leucyl-L-leucine methyl ester]",ATF4 expression,ATF4,increased ATF4 expression over time
same,"overlap of G3BP1 puncta with polyA RNA probe (Cy3-oligo-dT, FISH)",[1],completely overlapped with polyA RNA probe
same,cell death by PI uptake assay,[2],significant cell death
same,G3BP1+ SGs associated with lysosomes (LAMP2),[3],10%
same,eIF2α pS51 response after LLOMe washout,[4]; 2 mM LLOMe 30 min followed by 1 h washout,subsided
same,phosphorylation of eIF2α on Ser51,[4]; 2 mM LLOMe for 30 min,induced phosphorylation of eIF2α on Ser51
same,phosphorylated eIF2α at later times during treatment,"[4]; 2 mM LLOMe, later time points",reduced levels of phosphorylated eIF2α at later times
same,"eIF2α phosphorylation, dose dependence",[4]; indicated dose of LLOMe for 30 min,induced eIF2α phosphorylation
